Data as given in paper PMC4501791, “Molecular Design, Synthesis and Trypanocidal Activity of Dipeptidyl Nitriles as Cruzain Inhibitors” (PLoS Neglected Tropical Diseases, 2015).
Where two headings read alike, the source gives them in different places.

How the values were obtained:
[1] = tested on: T. cruzi Tulahuen strain amastigotes; experiment: Trypanocidal activity against amastigote forms in LLCMK2 cells, Tulahuen strain; type: cell-based; settings: Trypanosoma cruzi; for killing at 32 µM: LLC-MK2, 120 h, amastigote lysis, 5 days, read-out: %cell lysis at 32 μM ama Tula; for EC50: LLC-MK2
Procedure: (§1) The assays against amastigote forms were performed in LLCMK2 cells. Previously, the cells were cultivated in 96-wells microplates (10^3 cells/well). […] After this, the microplates were incubated at 37°C, in CO2 atmosphere, for 5 days. Then, 10 μL of FluoReporter lacZ/Galactosidase Quantitative Kit (Life Technologies) were added and after 30 minutes the fluorometric reaction was read in a microplate reader (Synergy H1, Biotek) at 386 nm excitation and 448 nm emission. For both assays the percentage of parasite lysis was determined from the following formula: %lysis = 100 –{[(X-PC)/(PC-NC)]x100}, where the optical density values of the samples (X), the positive controls (PC) and negative controls (NC) were used. Culture medium was used as positive control (PC) and medium with 0.6% DMSO (v/v) as negative control (NC). All assays were performed in triplicate with two independent experiments.

[2] = tested on: T. cruzi CL-Brener strain amastigotes; experiment: Trypanocidal activity against amastigote forms in LLCMK2 cells, CL-Brener strain; type: cell-based; settings: Trypanosoma cruzi, LLC-MK2, 120 h, amastigote lysis, 5 days, read-out: %cell lysis at 32 μM ama Brener
Procedure: as §1

[3] = tested on: LLCMK2 cells; experiment: Lysis of LLCMK2 host cells; type: cell-based; settings: Macaca mulatta, LLC-MK2, 32 μM, read-out: %cell lysis at 32 μM LLCMK2
[4] = Lysis of LLCMK2 host cells; type: cell-based; settings: rhesus monkey, footnote of Table 3, cell line not stated
[5] = target: T1, cruzain (Trypanosoma cruzi, UniProt P25779); experiment: Reversibility assay: recovery of cruzain activity after rapid large dilution; type: biochemical; settings: 4.5 μM compound incubated with 15 nM cruzain for 30 min, diluted 100-fold
T1 construct: made in house
Procedure: The progress curve for this sample was then measured and compared to that of a similar sample of enzyme incubated and diluted in the absence of inhibitor. The irreversible inhibitor E-64 (CAS 66701-25-5, Sigma Aldrich) was used as reference.

[6] = target: T1, cruzain; experiment: biochemical; settings: 37°C, pH 5.5, substrate Z-FR-AMC
Procedure: Enzyme kinetic assays were carried out at 37°C in 200 L of a solution containing 100 mM acetate buffer pH 5.5, 300 mM NaCl, 5 mM DTT (dithiothreitol), 5% v/v DMSO (dimethyl sulfoxide), 0.01% v/v Triton X-100 and 0.15 nM cruzain, using Corning® 96-well black flat bottom microplates. The rate of the reaction was monitored using a Biotek Synergy HT plate reader through the fluorescence emission at 460 nm (excitation at 355 nm) due to the hydrolysis of the substrate Z-Phe-Arg-7-amido-4-methylcoumarin (Z-FR-AMC, Sigma-Aldrich). The enzyme stock aliquot was rapidly thawed at 37°C and kept on ice until activation, in which it was incubated for 20 min. in the assay buffer (100 mM acetate pH 5.5 and 5 mM DTT) followed by additional 2 min. incubation with inhibitors before the reaction was started by the addition of the substrate.
Visual inspection and a pre-reading of plate wells were performed to check for possible precipitation and background fluorescence, respectively. Fluorescence emission spectra were also recorded for all inhibitors, using the same excitation wavelength (355 nm) as for the fluorometric assay. […] The reaction was started by the addition of varying concentrations of the substrate and the wells monitored for a total of 5 minutes of reaction. The initial velocities of the substrate hydrolysis under first-order reaction were calculated by Gen5 Biotek software based on the linear-regression coefficient from the fit to data of Relative Fluorescence Unit (mRFU) as a function of time (min).
Each experiment was performed in duplicates for each compound being tested. […] All inhibitors were evaluated in two different concentrations, which were chosen based on a previous screening (percentage of inhibition) at 1.7 μM substrate (~K M). […] SigmaPlot (v. 10.0) was employed for the non-linear fit and the kinetic parameters determination.

[7] = tested on: Balb-c 3T3 clone A31 cells; experiment: MTT cytotoxicity assay using mouse fibroblast cells; type: cell-based; settings: 250 μM, Balb-c 3T3 cells, MTT, 24, 48 and 72 h, benznidazole as control
Procedure: All compounds were subjected to the MTT colorimetric assay using Balb-c 3T3 clone A31 cells (mouse fibroblast cells) acquired from the Rio de Janeiro Cell Bank (BCRJ code 0047). Inhibition values were determined in the cell-based assay as previously described. Briefly, cells were cultured at 37°C in an atmosphere of 5% CO2 using DMEM medium (Cultilab, Campinas-SP, Brazil) supplemented with 3.5 g glucose (Sigma-Aldrich), 1% penicillin/streptomycin solution and 10% FBS (Cultilab). Cells were plated at a concentration of 10^5 cell/mL in 96-well plates and incubated for 24 h. All compounds were freshly diluted from 50 mM DMSO stock solutions to obtain the final concentration of 250 μM and added to each well by replacing the medium. The cell viability was assessed during 24, 48 and 72 h using the MTT (Sigma-Aldrich) reagent, with an incubation time of 3 h. […] The readout was obtained using Biotek Synergy HT plate reader at 570 nm. Benznidazole was used as control. This assay was done in quatruplicate in two independent experiments. Statistical analyses were made in GraphPad Prism 5. Dunnett’s multiple comparison tests were performed using benznidazole as the standard compound for the ordinary ANOVA analysis using 95% confidence interval.

[8] = amastigote, T. cruzi Tulahuen strain, read-out: pEC50 ama Tula (converted)
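Throughout, for Ki: fluorometric read-out of substrate hydrolysis at excitation 355 nm and emission 460 nm, initial rates over 5 min, Ki from nonlinear kinetic fits, duplicate runs.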

T1 sequence (P25779 123-337 limits assumed): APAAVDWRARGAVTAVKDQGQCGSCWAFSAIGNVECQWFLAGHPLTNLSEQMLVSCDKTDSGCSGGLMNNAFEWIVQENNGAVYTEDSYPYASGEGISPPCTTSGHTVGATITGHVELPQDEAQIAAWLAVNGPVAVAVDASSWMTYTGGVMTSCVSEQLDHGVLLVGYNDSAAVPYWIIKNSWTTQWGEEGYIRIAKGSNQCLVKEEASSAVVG

Row | Compound | killing at 32 µM ([1]; T. cruzi Tulahuen strain) [%] | EC50 [1, 8] [µM] | killing at 32 µM [2] [%] | cytotoxicity at 32 µM [3] [%] | CC50 at 5 days [4] [µM] | reversibility of inhibition [5] | Ki [6] [nM] | EC50 ([1]; against the parasite (amastigote, Tulahuen strain), read-out: EC50) [µM] | melting point [°C] | cytotoxicity [7]
1 | O=C(Cn1ccnc1[N+](=O)[O-])NCc1ccccc1 [Benznidazole, reference compound] | 78 ± 3 | 1.58 | 29 ± 2 | 31 ± 2 | 353 | – | – | – | – | –
2 | N#CCNC(=O)[C@H](Cc1ccccc1)NC(=O)c1ccccc1 [Compound 5, (2S)-N-(cyanomethyl)-3-phenyl-2-(phenylformamido)propanamide] | – | 126 | – | – | – | reversible | 501 | – | – | –
3 | N#CCNC(=O)[C@H](Cc1c[nH]c2ccccc12)NC(=O)c1ccccc1 [Compound 12, (2S)-N-(cyanomethyl)-3-(1H-indol-3-yl)-2-(phenylformamido)propanamide] | 60 ± 5 | 25.1 | 17 ± 1 | 34 ± 5 | – | – | 398 | 28 | 158 to 159 | same range of cytotoxicity when compared to benznidazole
4 | N#CCNC(=O)C1(NC(=O)c2ccccc2)CCCC1 [Compound 14, N-(1-[(cyanomethyl)carbamoyl]cyclopentyl)benzamide] | 25 ± 4 | 200 | 9 ± 1 | 18 ± 1 | – | – | 7940 | – | 165 to 166 | –
5 | N#CCNC(=O)[C@H](Cc1ccccc1)NC(=O)c1ccco1 [Compound 17, (2S)-N-(cyanomethyl)-2-(furan-2-ylformamido)-3-phenylpropanamide] | 36 ± 1 | 100 | 21 ± 2 | 24 ± 0.2 | – | – | 501 | – | 176 to 179 | –
6 | N#CCNC(=O)[C@H](Cc1ccccc1)NC(=O)c1ccncn1 [Compound 18, (2S)-N-(cyanomethyl)-3-phenyl-2-(pyrimidin-4-ylformamido)propanamide] | 17 ± 2 | 200 | 18 ± 1 | 20 ± 1 | – | – | 1260 | – | 171 to 173 | –
7 | CC(C)C[C@H](NC(=O)c1cc(C(C)(C)C)nn1C)C(=O)NCC#N [Compound 29, (2S)-2-[(3-tert-butyl-1-methyl-1H-pyrazol-5-yl)formamido]-N-(cyanomethyl)-4 methylpentanamide] | 17 ± 4 | – | 10 ± 1 | 27 ± 18 | – | – | 63.1 | – | 179 to 180 | –
